Experimental data as given in the supplement of paper PMC11061612.

Legend:
Assay in all cases: Bliss excess, mean over the matrix (fraction); higher = more synergy
EW-22 (Ewing's Sarcoma) = tested on: EW-22 (Ewing's Sarcoma)
How it was run: (§1)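 After 24 hours at 37°C and 5% CO2 in 1536-well plates, cells in DMEM/F12 or RPMI plus 10% FBS received two-drug dose matrices for 72 hours. Viability came from CellTiter-Glo 2.0 luminescence and was scaled as inhibition, anchored at 0 by vehicle wells and at 1 by blank wells. Combination Emax is taken as the second-highest inhibition in the matrix, and Bliss excess as the observed combination effect less EA + EB − EA·EB, with EA and EB the single-agent effects.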

[1] = tested on: GDM-1 (Acute Myeloid Leukemia)
How it was run: as §1

[2] = tested on: HCT-116 (Colorectal Carcinoma)
How it was run: as §1

[3] = tested on: DOK (Oral Cavity Carcinoma)
How it was run: as §1

[4] = tested on: HCC1143 (Breast Carcinoma)
How it was run: as §1

[5] = tested on: 647-V (Bladder Carcinoma)
How it was run: as §1

[6] = tested on: HCC-827 (Lung Adenocarcinoma)
How it was run: as §1

[7] = tested on: SKN-3 (Head and Neck Carcinoma)
How it was run: as §1

[8] = tested on: U-118-MG (Low Grade Glioma)
How it was run: as §1

[9] = tested on: TYK-nu (Ovarian Carcinoma)
How it was run: as §1

[10] = tested on: RCC10RGB (Kidney Carcinoma)
How it was run: as §1

[11] = tested on: P31-FUJ (Acute Myeloid Leukemia)
How it was run: as §1

[12] = tested on: CAL-39 (Other Solid Carcinomas)
How it was run: as §1

[13] = tested on: SW948 (Colorectal Carcinoma)
How it was run: as §1

Saos-2 (Osteosarcoma) = tested on: Saos-2 (Osteosarcoma)
How it was run: as §1

[14] = tested on: YT (Other Blood Carcinomas)
How it was run: as §1

[15] = tested on: WSU-DLCL2 (B-Cell Non-Hodgkin's Lymphoma)
How it was run: as §1

H4 (Low Grade Glioma) = tested on: H4 (Low Grade Glioma)
How it was run: as §1

A172 (Glioblastoma) = tested on: A172 (Glioblastoma)
How it was run: as §1

[16] = tested on: BICR78 (Oral Cavity Carcinoma)
How it was run: as §1

Row | SMILES | Bliss excess (EW-22 (Ewing's Sarcoma)) | Bliss excess [1] | Bliss excess [2] | Bliss excess [3] | Bliss excess [4] | Bliss excess [5] | Bliss excess [6] | Bliss excess [7] | Bliss excess [8] | Bliss excess [9] | Bliss excess [10] | Bliss excess [11] | Bliss excess [12] | Bliss excess [13] | Bliss excess (Saos-2 (Osteosarcoma)) | Bliss excess [14] | Bliss excess [15] | Bliss excess (H4 (Low Grade Glioma)) | Bliss excess (A172 (Glioblastoma)) | Bliss excess [16]
1 | Cn1cnc2c(F)c(Nc3ccc(Br)cc3Cl)c(C(=O)NOCCO)cc21 [Selumetinib] + CCN(CCO)CCCOc1ccc2c(Nc3cc(CC(=O)Nc4cccc(F)c4)[nH]n3)ncnc2c1 [AZD2811] (first compound max 10 µM, 7x7, partner max 1 µM) | -0.0426 | -0.0345 | 0.0289 | -0.0864 | 0.0298 | -0.0038 | -0.0711 | -0.0166 | -0.027 | -0.0169 | -0.0658 | -0.0136 | -0.0688 | 0.0022 | 0.0334 | -0.0336 | -0.0019 | -0.0091 | -0.0731 | 0.0275
2 | Cc1cc2ncnn2cc1Nc1ncc2c(n1)n(C1CCOCC1)c(=O)n2C [AZD7648] + CCN(CCO)CCCOc1ccc2c(Nc3cc(CC(=O)Nc4cccc(F)c4)[nH]n3)ncnc2c1 [AZD2811] (first compound max 10 µM, 7x7, partner max 1 µM) | -0.0261 | -0.036 | 0.0304 | 0.0123 | -0.003 | 0.0618 | -0.0026 | -0.0037 | 0.0172 | 0.0625 | 0.0069 | -0.017 | -0.0393 | -0.0979 | 0.0364 | 0.0407 | 0.127 | 0.006 | 0.0537 | -0.0135
3 | CN(C)CCCOc1ccc(-c2ccc3ncc4c(c3c2)n(C2CCOCC2)c(=O)n4C)cn1 [AZD0156] + O=C(c1cc(Cc2n[nH]c(=O)c3ccccc23)ccc1F)N1CCN(C(=O)C2CC2)CC1 [Olaparib] (first compound max 3 µM, partner max 3 µM) | 0.217 | 0.109 | 0.129 | 0.0549 | -0.0194 | 0.0562 | -0.0328 | -0.0165 | 0.0122 | 0.0468 | -0.0356 | 0.0759 | 0.0549 | -0.0231 | 0.0334 | 0.0265 | 0.211 | 0.179 | 0.0378 | -0.0507
4 | Cn1cnc2c(F)c(Nc3ccc(Br)cc3Cl)c(C(=O)NOCCO)cc21 [Selumetinib] + CC(C)n1c(=O)n(C)c2cnc3cc(F)c(-c4ccc(OCCCN5CCCCC5)nc4)cc3c21 [AZD1390] (first compound max 10 µM, 7x7, partner max 0.3 µM) | -0.0304 | -0.0523 | -0.0129 | 0.021 | 0.013 | -0.0481 | -0.0306 | -0.0318 | -0.0587 | -0.0523 | -0.0004 | 0.0398 | 0.0025 | -0.0174 | -0.0577 | -0.03 | -0.003 | -0.0503 | -0.0389 | 0.0116
5 | CC(=O)c1c(C)c2cnc(Nc3ccc(N4CCNCC4)cn3)nc2n(C2CCCC2)c1=O [Palbociclib] + Cn1cnc2c(F)c(Nc3ccc(Br)cc3Cl)c(C(=O)NOCCO)cc21 [Selumetinib] (first compound max 10 µM, 7x7, partner max 10 µM) | -0.0158 | 0.0343 | 0.0697 | 0.0057 | 0.0325 | -0.035 | -0.0172 | 0.0345 | -0.0114 | -0.065 | -0.0121 | 0.0152 | 0.151 | -0.0078 | -0.0402 | -0.0471 | -0.0194 | 0.0308 | 0.0031 | 0.0133
6 | Cn1cnc2c(F)c(Nc3ccc(Br)cc3Cl)c(C(=O)NOCCO)cc21 [Selumetinib] + C=CCn1c(=O)c2cnc(Nc3ccc(N4CCN(C)CC4)cc3)nc2n1-c1cccc(C(C)(C)O)n1 [AZD1775] (first compound max 10 µM, partner max 1 µM) | -0.0632 | -0.0254 | -0.0286 | 0.0043 | -0.0112 | -0.0359 | -0.026 | 0.0226 | -0.061 | -0.0404 | -0.0703 | -0.0064 | 0.0116 | -0.0258 | -0.0072 | 0.0002 | -0.0064 | -0.0797 | -0.126 | -0.0678
7 | NC1(C(=O)N[C@@H](CCO)c2ccc(Cl)cc2)CCN(c2ncnc3[nH]ccc23)CC1 [Capivasertib] + CC(C)n1c(=O)n(C)c2cnc3cc(F)c(-c4ccc(OCCCN5CCCCC5)nc4)cc3c21 [AZD1390] (first compound max 10 µM, 7x7, partner max 0.3 µM) | -0.0613 | -0.0904 | -0.0263 | -0.0428 | -0.0661 | -0.04 | -0.0793 | -0.0849 | -0.0405 | -0.116 | -0.0676 | -0.169 | -0.0731 | -0.0943 | -0.0063 | -0.0228 | 0.0106 | -0.0638 | -0.0965 | -0.0552
8 | C[C@@H](c1ccc2nccn2c1)n1nnc2ncc(-c3cnn(C)c3)nc21 [Savolitinib] + CC1(C)CCC(CN2CCN(c3ccc(C(=O)NS(=O)(=O)c4ccc(NCC5CCOCC5)c([N+](=O)[O-])c4)c(Oc4cnc5[nH]ccc5c4)c3)CC2)=C(c2ccc(Cl)cc2)C1 [Venetoclax] (first compound max 1 µM, 7x7, partner max 1 µM) | -0.0281 | -0.0236 | -0.0357 | -0.0578 | -0.0361 | -0.057 | -0.0293 | -0.0543 | -0.0416 | -0.0478 | -0.0768 | -0.102 | -0.0687 | -0.0488 | -0.0259 | -0.0346 | 0.113 | -0.0399 | -0.0498 | -0.0779
9 | Cc1c2c(nn1C)CSCc1cc(n(C)n1)CSc1cc(c3ccccc3c1)OCCCc1c(C(=O)O)n(C)c3c-2c(Cl)ccc13 [AZD5991] + CCN(CCO)CCCOc1ccc2c(Nc3cc(CC(=O)Nc4cccc(F)c4)[nH]n3)ncnc2c1 [AZD2811] (first compound max 1 µM, 7x7, partner max 1 µM) | 0.0711 | 0.0444 | 0.0295 | 0.0524 | 0.0514 | 0.0896 | 0.0011 | 0.0134 | 0.0042 | 0.0438 | -0.0567 | -0.0193 | -0.0192 | -0.0014 | 0.0534 | 0.0185 | 0.0804 | 0.0207 | -0.0101 | 0.0088
10 | Cc1cc2ncnn2cc1Nc1ncc2c(n1)n(C1CCOCC1)c(=O)n2C [AZD7648] + C[C@@H]1COCCN1C2=NC(=NC(=C2)C3(CC3)[S@](=N)(=O)C)C4=C5C=CNC5=NC=C4 [AZD6738] (first compound max 10 µM, 7x7, partner max 10 µM) | 0.0058 | -0.022 | -0.0102 | 0.0441 | -0.0328 | 0.0987 | 0.0048 | -0.0279 | -0.0049 | -0.034 | 0.0076 | 0.0131 | 0.0081 | -0.0422 | -0.0169 | -0.0476 | -0.001 | -0.0116 | -0.0552 | -0.0018
11 | Cc1cc2ncnn2cc1Nc1ncc2c(n1)n(C1CCOCC1)c(=O)n2C [AZD7648] + CN(C)CCCOc1ccc(-c2ccc3ncc4c(c3c2)n(C2CCOCC2)c(=O)n4C)cn1 [AZD0156] (first compound max 10 µM, 7x7, partner max 1 µM) | 0.0335 | -0.0215 | 0.0277 | -0.0075 | 0.0031 | 0.0401 | 0.0386 | -0.0064 | -0.0217 | -0.0465 | -0.0735 | 0.0381 | -0.0104 | 0.0122 | -0.016 | -0.0389 | 0.0127 | -0.0253 | -0.034 | 0.0054
12 | CC(=O)c1c(C)c2cnc(Nc3ccc(N4CCNCC4)cn3)nc2n(C2CCCC2)c1=O [Palbociclib] + Cc1c2c(nn1C)CSCc1cc(n(C)n1)CSc1cc(c3ccccc3c1)OCCCc1c(C(=O)O)n(C)c3c-2c(Cl)ccc13 [AZD5991] (first compound max 10 µM, 7x7, partner max 1 µM) | 0.0039 | 0.0919 | -0.0075 | -0.0363 | 0.0011 | -0.0442 | -0.0324 | -0.0428 | -0.0201 | -0.0289 | -0.0083 | -0.11 | 0.0054 | 0.0058 | -0.0197 | 0.0006 | -0.0052 | -0.0371 | -0.0589 | -0.0375
13 | NC1(C(=O)N[C@@H](CCO)c2ccc(Cl)cc2)CCN(c2ncnc3[nH]ccc23)CC1 [Capivasertib] + C[C@@H]1COCCN1C2=NC(=NC(=C2)C3(CC3)[S@](=N)(=O)C)C4=C5C=CNC5=NC=C4 [AZD6738] (first compound max 10 µM, 7x7, partner max 10 µM) | -0.0047 | -0.024 | -0.0432 | -0.0681 | -0.105 | -0.0386 | -0.0421 | -0.0564 | -0.0276 | -0.109 | -0.134 | -0.145 | 0.0019 | -0.102 | -0.0717 | -0.0249 | -0.0088 | -0.0667 | -0.0106 | 0.0163
14 | NC1(C(=O)N[C@@H](CCO)c2ccc(Cl)cc2)CCN(c2ncnc3[nH]ccc23)CC1 [Capivasertib] + COc1nnc2ccc(N3CCC(c4ccc(OCCN5CCN(C)C(=O)[C@H]5C)cc4)CC3)nn12 [AZD5153] (first compound max 10 µM, 7x7, partner max 1 µM) | 0.08 | 0.0163 | 0.0331 | 0.03 | -0.0035 | -0.0536 | 0.0472 | 0.0027 | 0.057 | 0.0114 | 0.0221 | 0.0066 | -0.0579 | -0.0082 | -0.0028 | 0.007 | -0.0546 | -0.0057 | 0.0178 | 0.0135
15 | CN(CCO)CC[C@H](CSc1ccccc1)Nc1ccc(S(=O)(=O)NC(=O)c2ccc(N3CCC([C@@H](O)c4ccccc4-c4ccc(Cl)cc4)CC3)cc2)cc1S(=O)(=O)C(F)(F)F [AZD4320] + Cc1cc2ncnn2cc1Nc1ncc2c(n1)n(C1CCOCC1)c(=O)n2C [AZD7648] (first compound max 1 µM, 7x7, partner max 10 µM) | -0.0165 | -0.0041 | -0.0197 | -0.0178 | -0.0021 | -0.0508 | -0.0339 | -0.0463 | -0.0154 | -0.0405 | -0.077 | -0.0229 | -0.03 | -0.0233 | -0.0389 | 0.0291 | 0.0591 | -0.0355 | -0.0828 | -0.0167
